Laboratory results from article PMC8341802 (RSC Chemical Biology, 2021).

Biological target: APOBEC3A (A3A) (Homo sapiens, UniProt P31941)
Assay type: biochemical

Chain of APOBEC3A (A3A) (P31941 whole entry): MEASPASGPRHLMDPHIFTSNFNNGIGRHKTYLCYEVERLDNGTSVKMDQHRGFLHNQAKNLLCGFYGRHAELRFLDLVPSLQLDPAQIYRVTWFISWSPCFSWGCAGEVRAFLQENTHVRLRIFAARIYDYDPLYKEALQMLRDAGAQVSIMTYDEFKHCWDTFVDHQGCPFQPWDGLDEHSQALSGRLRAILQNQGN

Question: With `O=C(O)C1=CC(=C(c2ccc(O)c(C(=O)O)c2)c2ccc(O)c(C(=O)O)c2)C=CC1=O` [MN1, aurintricarboxylic acid] as the compound, how does the IC50 read?
Answer: 40.5 µM
